# Measurements as given in patent US20130032547A1, “STABILIZATION AND DISINFECTION OF WASTES USING HIGH ENERGY E-BEAM AND CHEMICAL OXIDANTS” (priority 2011, published 2013).
# “Also recorded” adds a separate entry of the source.
# Assays:
# Salmonella Typhimurium [1] = type: cell-based
# [2] = test system: Escherichia coli (ATCC #25922); type: cell-based; on reduction (in words): test concentration or dose not given here
# [3] = test system: somatic coliphages (phi X 174); type: cell-based, coliphage phi X 174; further: test concentration or dose not given here
# Salmonella Typhimurium [4] = test: Re-growth of spiked Salmonella in treated biosolids (U.S. EPA method 1682, MPN); type: cell-based; settings: for Salmonella, Plate count: Sep. 11, 2009
# [5] = test system: fecal coliforms (E. coli); test: Re-growth of fecal coliforms (spiked E. coli) in treated biosolids (U.S. EPA method 1680, MPN); type: cell-based; settings: for fecal coliforms, Plate count: Sep. 11, 2009
# [6] = test system: estrogenic activity of 17-β-estradiol (E2); human estrogen receptor; test: Estrogenic activity, YES assay (recombinant yeast); type: cell-based, Saccharomyces cereviciae; on estrogenic activity, E2 spiked (untreated) vs treated samples (in words): test concentration or dose not given here; on reduction of estrogenic activity (in words): test concentration or dose not given here
# Poliovirus Type 1 = settings: cited from earlier work
# [7] = Table 23, ClO2 + Irradiated, Oct. 5, 2009
# [8] = Table 23, ClO2 + Irradiated, Sep. 18, 2009
# [9] = Table 23, ClO2 + Irradiated, Sep. 25, 2009
# [10] = Table 24, ClO2 + Irradiated, Oct. 5, 2009
# [11] = Table 24, ClO2 + Irradiated, Sep. 18, 2009
# [12] = Table 24, ClO2 + Irradiated, Sep. 25, 2009
# [13] = Table 25, ClO2 + Irradiated, Oct. 5, 2009
# [14] = Table 25, ClO2 + Irradiated, Sep. 18, 2009
# [15] = Table 25, ClO2 + Irradiated, Sep. 25, 2009
# [16] = Table 26, ClO2 + Irradiated, Oct. 5, 2009
# [17] = Table 26, ClO2 + Irradiated, Sep. 18, 2009
# [18] = Table 26, ClO2 + Irradiated, Sep. 25, 2009
# Wherever reduction (in words) is given: test concentration or dose not given here.
smiles,measurement,setting,value
"[O][Cl+][O-] [Chlorine Dioxide, chlorine dioxide]",log reduction,Salmonella Typhimurium [1],3 log
same,reduction (in words),Salmonella Typhimurium [1],did not show any significant reduction
same,log reduction,[2],4 to 5 log
same,log reduction (complete reduction),[2],approximately 8 log
same,reduction (in words),[2],did not exhibit any reduction
same,inactivation (in words),[3],effectively eliminated; also recorded: significant reductions
same,re-growth of Salmonella spp. (in words),Salmonella Typhimurium [4],no re-growth
same,"Salmonella, Plate count","Salmonella Typhimurium [4]; Table 23 (% total solid 0.0131, aerobic inferred), ClO2",2.98E+08
same,Salmonella MPN/4 g (dry weight),Salmonella Typhimurium [4]; [7],2.20E+01 MPN/4 g (dry weight)
same,"Salmonella MPN/4 g (dry weight) based on 2 ml, 1 ml, 0.1 ml",Salmonella Typhimurium [4]; [7],2.2E+00 MPN/4 g (dry weight)
same,Salmonella MPN/ml (wet weight),Salmonella Typhimurium [4]; [7],0.0072 MPN/ml (wet weight)
same,"Salmonella, Plate count","Salmonella Typhimurium [4]; Table 23, ClO2 + Irradiated",4.43E+05
same,Salmonella MPN/4 g (dry weight),Salmonella Typhimurium [4]; [8],1.91E+02 MPN/4 g (dry weight)
same,"Salmonella MPN/4 g (dry weight) based on 2 ml, 1 ml, 0.1 ml",Salmonella Typhimurium [4]; [8],1.9E+01 MPN/4 g (dry weight)
same,Salmonella MPN/ml (wet weight),Salmonella Typhimurium [4]; [8],0.0626 MPN/ml (wet weight)
same,Salmonella MPN/4 g (dry weight),Salmonella Typhimurium [4]; [9],7.15E+01 MPN/4 g (dry weight)
same,"Salmonella MPN/4 g (dry weight) based on 2 ml, 1 ml, 0.1 ml",Salmonella Typhimurium [4]; [9],7.1E+00 MPN/4 g (dry weight)
same,Salmonella MPN/ml (wet weight),Salmonella Typhimurium [4]; [9],0.0234 MPN/ml (wet weight)
same,Salmonella MPN/4 g (dry weight),"Salmonella Typhimurium [4]; Table 23, ClO2, Oct. 5, 2009",7.79E+01 MPN/4 g (dry weight)
same,"Salmonella MPN/4 g (dry weight) based on 2 ml, 1 ml, 0.1 ml","Salmonella Typhimurium [4]; Table 23, ClO2, Oct. 5, 2009",7.8E+00 MPN/4 g (dry weight)
same,Salmonella MPN/ml (wet weight),"Salmonella Typhimurium [4]; Table 23, ClO2, Oct. 5, 2009",0.0255 MPN/ml (wet weight)
same,Salmonella MPN/4 g (dry weight),"Salmonella Typhimurium [4]; Table 23, ClO2, Sep. 18, 2009",4.91E+03 MPN/4 g (dry weight)
same,"Salmonella MPN/4 g (dry weight) based on 2 ml, 1 ml, 0.1 ml","Salmonella Typhimurium [4]; Table 23, ClO2, Sep. 18, 2009",4.9E+02 MPN/4 g (dry weight)
same,Salmonella MPN/ml (wet weight),"Salmonella Typhimurium [4]; Table 23, ClO2, Sep. 18, 2009",1.6090 MPN/ml (wet weight)
same,Salmonella MPN/4 g (dry weight),"Salmonella Typhimurium [4]; Table 23, ClO2, Sep. 25, 2009",3.51E+02 MPN/4 g (dry weight)
same,"Salmonella MPN/4 g (dry weight) based on 2 ml, 1 ml, 0.1 ml","Salmonella Typhimurium [4]; Table 23, ClO2, Sep. 25, 2009",3.5E+01 MPN/4 g (dry weight)
same,Salmonella MPN/ml (wet weight),"Salmonella Typhimurium [4]; Table 23, ClO2, Sep. 25, 2009",0.1151 MPN/ml (wet weight)
same,"Salmonella, Plate count","Salmonella Typhimurium [4]; Table 24 (% total solid 0.0312, anaerobic inferred), ClO2",3.03E+06
same,Salmonella MPN/4 g (dry weight),Salmonella Typhimurium [4]; [10],4.41E+01 MPN/4 g (dry weight)
same,"Salmonella MPN/4 g (dry weight) based on 2 ml, 1 ml, 0.1 ml",Salmonella Typhimurium [4]; [10],4.4E+00 MPN/4 g (dry weight)
same,Salmonella MPN/ml (wet weight),Salmonella Typhimurium [4]; [10],0.0344 MPN/ml (wet weight)
same,"Salmonella, Plate count","Salmonella Typhimurium [4]; Table 24, ClO2 + Irradiated",3.85E+03
same,Salmonella MPN/4 g (dry weight),Salmonella Typhimurium [4]; [11],6.95E+02 MPN/4 g (dry weight)
same,"Salmonella MPN/4 g (dry weight) based on 2 ml, 1 ml, 0.1 ml",Salmonella Typhimurium [4]; [11],7.0E+01 MPN/4 g (dry weight)
same,Salmonella MPN/ml (wet weight),Salmonella Typhimurium [4]; [11],0.5422 MPN/ml (wet weight)
same,Salmonella MPN/4 g (dry weight),Salmonella Typhimurium [4]; [12],8.03E+01 MPN/4 g (dry weight)
same,"Salmonella MPN/4 g (dry weight) based on 2 ml, 1 ml, 0.1 ml",Salmonella Typhimurium [4]; [12],8.0E+00 MPN/4 g (dry weight)
same,Salmonella MPN/ml (wet weight),Salmonella Typhimurium [4]; [12],0.0626 MPN/ml (wet weight)
same,Salmonella MPN/4 g (dry weight),"Salmonella Typhimurium [4]; Table 24, ClO2, Oct. 5, 2009",8.03E+01 MPN/4 g (dry weight)
same,"Salmonella MPN/4 g (dry weight) based on 2 ml, 1 ml, 0.1 ml","Salmonella Typhimurium [4]; Table 24, ClO2, Oct. 5, 2009",8.0E+00 MPN/4 g (dry weight)
same,Salmonella MPN/ml (wet weight),"Salmonella Typhimurium [4]; Table 24, ClO2, Oct. 5, 2009",0.0626 MPN/ml (wet weight)
same,Salmonella MPN/4 g (dry weight),"Salmonella Typhimurium [4]; Table 24, ClO2, Sep. 18, 2009",2.06E+03 MPN/4 g (dry weight)
same,"Salmonella MPN/4 g (dry weight) based on 2 ml, 1 ml, 0.1 ml","Salmonella Typhimurium [4]; Table 24, ClO2, Sep. 18, 2009",2.1E+02 MPN/4 g (dry weight)
same,Salmonella MPN/ml (wet weight),"Salmonella Typhimurium [4]; Table 24, ClO2, Sep. 18, 2009",1.6090 MPN/ml (wet weight)
same,Salmonella MPN/4 g (dry weight),"Salmonella Typhimurium [4]; Table 24, ClO2, Sep. 25, 2009",4.46E+02 MPN/4 g (dry weight)
same,"Salmonella MPN/4 g (dry weight) based on 2 ml, 1 ml, 0.1 ml","Salmonella Typhimurium [4]; Table 24, ClO2, Sep. 25, 2009",4.5E+01 MPN/4 g (dry weight)
same,Salmonella MPN/ml (wet weight),"Salmonella Typhimurium [4]; Table 24, ClO2, Sep. 25, 2009",0.3475 MPN/ml (wet weight)
same,re-growth of fecal coliforms (in words),[5],no re-growth
same,"fecal coliforms, Plate count","[5]; Table 25 (aerobic sludge inferred), ClO2",4.27E+07
same,fecal coliforms MPN/4 g dry wt,[5]; [13],<0.1803 MPN/4 g dry wt
same,fecal coliforms MPN/g dry wt,[5]; [13],<0.1803 MPN/g dry wt
same,"fecal coliforms, Plate count","[5]; Table 25, ClO2 + Irradiated",0.00E+00
same,fecal coliforms MPN/4 g dry wt,[5]; [14],<0.1803 MPN/4 g dry wt
same,fecal coliforms MPN/g dry wt,[5]; [14],<0.1803 MPN/g dry wt
same,fecal coliforms MPN/4 g dry wt,[5]; [15],<0.1803 MPN/4 g dry wt
same,fecal coliforms MPN/g dry wt,[5]; [15],<0.1803 MPN/g dry wt
same,fecal coliforms MPN/4 g dry wt,"[5]; Table 25, ClO2, Oct. 5, 2009",1.37E+03 MPN/4 g dry wt
same,fecal coliforms MPN/g dry wt,"[5]; Table 25, ClO2, Oct. 5, 2009",3.44E+02 MPN/g dry wt
same,fecal coliforms MPN/4 g dry wt,"[5]; Table 25, ClO2, Sep. 18, 2009",8.49E+05 MPN/4 g dry wt
same,fecal coliforms MPN/g dry wt,"[5]; Table 25, ClO2, Sep. 18, 2009",2.12E+05 MPN/g dry wt
same,fecal coliforms MPN/4 g dry wt,"[5]; Table 25, ClO2, Sep. 25, 2009",6.47E+03 MPN/4 g dry wt
same,fecal coliforms MPN/g dry wt,"[5]; Table 25, ClO2, Sep. 25, 2009",1.62E+03 MPN/g dry wt
same,"fecal coliforms, Plate count","[5]; Table 26 (anaerobic sludge inferred), ClO2",7.26E+06
same,fecal coliforms MPN/4 g dry wt,[5]; [16],<0.1803 MPN/4 g dry wt
same,fecal coliforms MPN/g dry wt,[5]; [16],<0.1803 MPN/g dry wt
same,"fecal coliforms, Plate count","[5]; Table 26, ClO2 + Irradiated",2.14E+03
same,fecal coliforms MPN/4 g dry wt,[5]; [17],1.01E+03 MPN/4 g dry wt
same,fecal coliforms MPN/g dry wt,[5]; [17],2.53E+02 MPN/g dry wt
same,fecal coliforms MPN/4 g dry wt,[5]; [18],<0.1803 MPN/4 g dry wt
same,fecal coliforms MPN/g dry wt,[5]; [18],<0.1803 MPN/g dry wt
same,fecal coliforms MPN/4 g dry wt,"[5]; Table 26, ClO2, Oct. 5, 2009",<0.1803 MPN/4 g dry wt
same,fecal coliforms MPN/g dry wt,"[5]; Table 26, ClO2, Oct. 5, 2009",<0.1803 MPN/g dry wt
same,fecal coliforms MPN/4 g dry wt,"[5]; Table 26, ClO2, Sep. 18, 2009",1.02E+05 MPN/4 g dry wt
same,fecal coliforms MPN/g dry wt,"[5]; Table 26, ClO2, Sep. 18, 2009",2.54E+04 MPN/g dry wt
same,fecal coliforms MPN/4 g dry wt,"[5]; Table 26, ClO2, Sep. 25, 2009",1.67E+03 MPN/4 g dry wt
same,fecal coliforms MPN/g dry wt,"[5]; Table 26, ClO2, Sep. 25, 2009",4.17E+02 MPN/g dry wt
same,"estrogenic activity, E2 spiked (untreated) vs treated samples (in words)",[6],no significant difference
same,reduction of estrogenic activity (in words),[6],does not reduce
same,time to inactivate clumped poliovirus I aggregates compared to single state viruses,Poliovirus Type 1,2.7 times longer
"C[C@]12CC[C@@H]3c4ccc(O)cc4CC[C@H]3[C@@H]1CC[C@@H]2O [E2, 17-β-estradiol, reference compound]",upper limit of the dynamic range of the YES assay (saturation),[6]; E2 standards in DMSO,60 nM
